The values that follow come from ChEMBL document CHEMBL1201862, “PubChem BioAssay data set” (2004).

Several values for one entry are separate records, joined by “and”; a condition that tells them apart may be missing. Equal values may be shown once.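 Test compounds were applied to cells in 96-well plates for 48 hours at 5 doses. Here, GI50 denotes the concentration required for 50% inhibition of growth.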 Activity calls are given as the source filed them. Rule as the data show it: active = GI50 up to about 1.1 µM and inactive = higher. Bounds are passed on as bounds.

Some test systems named below: UACC-257; OVCAR-5; MCF7; HOP-92; NCI/ADR-RES; UO-31; SN12C; MOLT-4; PC-3; HCT-15; SK-MEL-5; HCC 2998; A549; CAKI-1; MDA-MB-231; DU-145; UACC-62; Hs-578T; NCI-H522; SR.
Common to all, as to assay: NCI anticancer screen, dose series, 48 h

As for `CC1(C)CC(=O)C(=CNc2nc(-c3ccc(Br)cc3)cs2)C(=O)C1`, the GI50 is 18.5 µM (inactive) in the test with UACC-257; 42.5 µM (inactive) in the test with OVCAR-5; 32.6 µM (inactive) in the test on MCF7; 33 µM (inactive) in the test on HOP-92; 37.8 µM (inactive) with NCI/ADR-RES; 21.9 µM (inactive) with UO-31. Also, the GI50 is 39.7 µM (inactive) in the test on SN12C; 27.9 µM (inactive) in the test with MOLT-4; 26.8 µM (inactive) in the test on PC-3; 21.2 µM in the test on HCT-15; 32.6 µM (inactive) in the test on SK-MEL-5; 28.9 µM (inactive) in the test with HCC 2998. In addition, the GI50 in the test on A549 is 51.4 µM (inactive); in the test on CAKI-1, 24.9 µM (inactive); in the test on MDA-MB-231, 31.8 µM (inactive); with DU-145 it was 43.9 µM (inactive).
`CC1CC(N)=Nc2ccccc2N1Cc1ccccc1` (stereo not given): the GI50 was 14.2 µM (inactive) in the test with UACC-62; 12.9 µM (inactive) with UACC-257; 31.8 µM (inactive) with OVCAR-5; 11.1 µM (inactive) in the test on Hs-578T; 12.7 µM (inactive) with NCI-H522; 15.1 µM (inactive) in the test on NCI/ADR-RES. Moreover, the GI50 was 21.9 µM (inactive) with UO-31; 16.6 µM (inactive) in the test on SN12C; 3.49 µM (inactive) with MOLT-4; 14.2 µM (inactive) with PC-3; 15.8 µM in the test with HCT-15; 14.7 µM (inactive) with SK-MEL-5. The GI50 with A549 was 17.4 µM (inactive); in the test on CAKI-1 it was 12.2 µM (inactive); in the test on MDA-MB-231, 14.4 µM (inactive); in the test on DU-145 it was 16.6 µM (inactive).
With `FC(F)(F)c1ccc2nc(Sc3ccccn3)cnc2c1`, the GI50 in the test on UACC-62 is 29.2 µM (inactive); with UACC-257 it was 79.3 µM (inactive); in the test with OVCAR-5, > 100 µM (inactive); with MCF7 it was 74.8 µM (inactive); in the test with Hs-578T, 54.7 µM (inactive); in the test with HOP-92, 89.1 µM (inactive). Moreover, the GI50 is 21.7 µM (inactive) with NCI-H522; 37.4 µM (inactive) in the test on NCI/ADR-RES; 22.7 µM (inactive) with UO-31; 35.5 µM (inactive) with SN12C; 36.8 µM (inactive) with MOLT-4; 50.5 µM with HCT-15. The GI50 was 20.7 µM (inactive) in the test on SK-MEL-5; 17.1 µM (inactive) in the test with HCC 2998; 38.8 µM (inactive) in the test on A549; 62.4 µM (inactive) with CAKI-1; 38.4 µM (inactive) in the test on MDA-MB-231; 46.6 µM (inactive) in the test with DU-145.
For `CC1N(O)C(c2ccccc2)C(c2ccccc2)=[N+]1[O-]` (stereo not given), the GI50 in the test on UACC-62, in the test with UACC-257, in the test on OVCAR-5, in the test on MCF7, in the test with Hs-578T and in the test with HOP-92 was > 100 µM (inactive) throughout. Moreover, the GI50 in the test with SR, with NCI/ADR-RES, with UO-31, in the test on SN12C, with MOLT-4 and in the test with PC-3 was > 100 µM (inactive) throughout. Further, the GI50 in the test on HCT-15 is above 100 µM; in the test with SK-MEL-5, > 100 µM (inactive); in the test on HCC 2998, > 100 µM (inactive); in the test on A549, > 100 µM (inactive); in the test with CAKI-1, > 100 µM (inactive); in the test with MDA-MB-231, > 100 µM (inactive).
For `Cc1ccc(-c2sc(-c3ccc(C)cc3)c3c2C2CCC3C2)cc1`, the GI50 with UACC-62, in the test on UACC-257, in the test with OVCAR-5, in the test on Hs-578T, with HOP-92 and in the test with SR was > 50 µM (inactive) each time. Also, the GI50 in the test on NCI-H522, in the test on NCI/ADR-RES, in the test on UO-31, in the test on SN12C, in the test with MOLT-4 and with PC-3 was > 50 µM (inactive) throughout. Further, the GI50 in the test with HCT-15 was above 50 µM; with SK-MEL-5 it was > 50 µM (inactive); in the test on A549, > 50 µM (inactive); in the test on CAKI-1, > 50 µM (inactive); in the test on MDA-MB-231, > 50 µM (inactive); with DU-145, > 50 µM (inactive).
With `COc1ccc2c(c1)N=C1CSC(c3c(Cl)cccc3[N+](=O)[O-])N1C2` (stereo not given), the GI50 in the test on UACC-62 is 22.4 µM (inactive); in the test on UACC-257, 27 µM (inactive); in the test on OVCAR-5, > 100 µM (inactive); in the test with MCF7, 30.1 µM (inactive); in the test on Hs-578T, 45.4 µM (inactive); in the test on HOP-92, 40 µM (inactive). The GI50 in the test on NCI-H522 was 31 µM (inactive); in the test on NCI/ADR-RES, 34.5 µM (inactive); in the test with UO-31 it was 30.8 µM (inactive); in the test with SN12C, 53.7 µM (inactive); in the test on MOLT-4, 20 µM (inactive); in the test with PC-3, 40.6 µM (inactive). For the same compound, the GI50 in the test with HCT-15 is 30.8 µM; with SK-MEL-5, 19.4 µM (inactive); with HCC 2998 it was 21.4 µM (inactive); in the test on A549, 42.8 µM (inactive); with CAKI-1, 37.8 µM (inactive); in the test with MDA-MB-231, 33.3 µM (inactive).
Regarding `O=C1N/C(=N/N=C\C(O)C(O)C(O)CO)N/C1=C/c1ccc(Cl)cc1` (stereo not given), the GI50 is > 100 µM (inactive) in the test on UACC-257; 81.1 µM (inactive) in the test with OVCAR-5; 29.2 µM (inactive) in the test with MCF7; 40.1 µM (inactive) and 29 µM (inactive) with Hs-578T; 17 µM (inactive) and 32.1 µM (inactive) in the test on HOP-92; 22.5 µM (inactive) and 20.4 µM (inactive) in the test on NCI-H522. For the same compound, the GI50 with NCI/ADR-RES is 55.5 µM (inactive) and 44.5 µM (inactive); in the test with UO-31, 28.8 µM (inactive) and 31.7 µM (inactive); in the test with SN12C it was 69 µM (inactive) and 80.5 µM (inactive); in the test with MOLT-4 it was 18.5 µM (inactive) and 16.3 µM (inactive); in the test with PC-3 it was 42.8 µM (inactive) and 37.5 µM (inactive); with HCT-15, 20.6 µM. Further, the GI50 with SK-MEL-5 was 32 µM (inactive) and 46.6 µM (inactive); in the test on HCC 2998 it was > 10 µM (inactive); in the test with A549, 71.8 µM (inactive); with CAKI-1, 57 µM (inactive) and 47 µM (inactive); in the test on MDA-MB-231 it was 58.5 µM (inactive) and 44.6 µM (inactive); with DU-145, 44.8 µM (inactive) and 70.5 µM (inactive).
With `CCOC(=O)C(=CN1CCNC1=S)C(=O)OCC`, the GI50 with UACC-62 is > 100 µM (inactive); in the test on UACC-257, > 100 µM (inactive); with OVCAR-5, > 100 µM (inactive); with MCF7 it was > 100 µM (inactive); in the test with SR, > 100 µM (inactive); in the test on NCI-H522 it was 62.7 µM (inactive). Besides, the GI50 in the test on NCI/ADR-RES was > 100 µM (inactive); with SN12C, > 100 µM (inactive); in the test with MOLT-4, > 100 µM (inactive); in the test on PC-3 it was > 100 µM (inactive); with HCT-15, above 100 µM; with SK-MEL-5 it was > 100 µM (inactive). Moreover, the GI50 with HCC 2998, in the test on A549, with CAKI-1, in the test on MDA-MB-231 and with DU-145 was > 100 µM (inactive) in each case.
For `COc1ccc(O)c(/C=N\Nc2ccccc2)c1`, the GI50 in the test with UACC-62 was 2.6 µM (inactive); in the test with UACC-257, 16.7 µM (inactive); in the test on OVCAR-5, 19.5 µM (inactive); in the test with MCF7, 14.8 µM (inactive); in the test on Hs-578T, 30.1 µM (inactive); with HOP-92 it was 14 µM (inactive). Further, the GI50 in the test on NCI-H522 was 2.32 µM (inactive); with NCI/ADR-RES, 18.6 µM (inactive); with UO-31, 4.14 µM (inactive); in the test on SN12C it was 29.6 µM (inactive); in the test on MOLT-4 it was 1.39 µM (inactive); with PC-3, 45.2 µM (inactive). For the same compound, the GI50 with HCT-15 is 8.65 µM; with SK-MEL-5, 22.5 µM (inactive); with HCC 2998, < 0.01 µM (active); with A549, 6.22 µM (inactive); in the test with MDA-MB-231, 7.03 µM (inactive); in the test on DU-145 it was 25.5 µM (inactive).
For `N#CC(C/C=C/c1ccccc1)NNC(=O)c1c(Cl)c(Cl)c(Cl)c(Cl)c1-c1nc2cc(C(=O)c3ccccc3)ccc2[nH]1` (stereo not given), the GI50 is 25.5 µM (inactive) in the test with UACC-257; 28.9 µM (inactive) in the test with OVCAR-5; 7.94 µM (inactive) in the test on MCF7; 16.2 µM (inactive) in the test with HOP-92; 6.58 µM (inactive) in the test with SR; 12.9 µM (inactive) in the test with NCI/ADR-RES. The GI50 is 21.5 µM (inactive) with UO-31; 14.8 µM (inactive) in the test on SN12C; 13.4 µM (inactive) in the test on MOLT-4; 10.9 µM (inactive) in the test on PC-3; 11.6 µM with HCT-15; 10.2 µM (inactive) with SK-MEL-5. Moreover, the GI50 was 18.1 µM (inactive) in the test on A549, 31.4 µM (inactive) with CAKI-1, 16.1 µM (inactive) in the test with MDA-MB-231 and 18.5 µM (inactive) in the test with DU-145.
As to `CC(C)[C@H]1C(=O)O[B@-](F)(c2ccccc2)/[N+]1=C\N(C)C`, the GI50 in the test on UACC-62, in the test with UACC-257, in the test with OVCAR-5, in the test on MCF7, with HOP-92 and in the test with SR was > 100 µM (inactive) throughout. In addition, the GI50 was > 100 µM (inactive) in the test with NCI/ADR-RES; > 100 µM (inactive) with UO-31; > 100 µM (inactive) in the test on SN12C; > 100 µM (inactive) with MOLT-4; > 100 µM (inactive) in the test on PC-3; above 100 µM in the test on HCT-15. Moreover, the GI50 in the test with SK-MEL-5, with HCC 2998, in the test with A549, in the test on MDA-MB-231 and with DU-145 was > 100 µM (inactive) each time.
